Results: US10000474B2, “Histone deacetylase inhibitors and uses thereof” (MUSC FOUNDATION FOR RESEARCH DEVELOPMENT, priority 2014, dated 2018)
Counter-ions that a name gives are not always drawn.

What was measured:
Assay type in all cases: biochemical
Conditions in all cases: test concentration not given; average of triplicate
Recombinant human HDAC4 = target: T1, Recombinant human HDAC4 (Homo sapiens, UniProt P56524); assay: HDAC inhibitory assay, HDAC4 (Boc-Lys(Tfa)-AMC substrate)
T1 construct: purchased Millipore
T1 sequence (P56524 whole entry): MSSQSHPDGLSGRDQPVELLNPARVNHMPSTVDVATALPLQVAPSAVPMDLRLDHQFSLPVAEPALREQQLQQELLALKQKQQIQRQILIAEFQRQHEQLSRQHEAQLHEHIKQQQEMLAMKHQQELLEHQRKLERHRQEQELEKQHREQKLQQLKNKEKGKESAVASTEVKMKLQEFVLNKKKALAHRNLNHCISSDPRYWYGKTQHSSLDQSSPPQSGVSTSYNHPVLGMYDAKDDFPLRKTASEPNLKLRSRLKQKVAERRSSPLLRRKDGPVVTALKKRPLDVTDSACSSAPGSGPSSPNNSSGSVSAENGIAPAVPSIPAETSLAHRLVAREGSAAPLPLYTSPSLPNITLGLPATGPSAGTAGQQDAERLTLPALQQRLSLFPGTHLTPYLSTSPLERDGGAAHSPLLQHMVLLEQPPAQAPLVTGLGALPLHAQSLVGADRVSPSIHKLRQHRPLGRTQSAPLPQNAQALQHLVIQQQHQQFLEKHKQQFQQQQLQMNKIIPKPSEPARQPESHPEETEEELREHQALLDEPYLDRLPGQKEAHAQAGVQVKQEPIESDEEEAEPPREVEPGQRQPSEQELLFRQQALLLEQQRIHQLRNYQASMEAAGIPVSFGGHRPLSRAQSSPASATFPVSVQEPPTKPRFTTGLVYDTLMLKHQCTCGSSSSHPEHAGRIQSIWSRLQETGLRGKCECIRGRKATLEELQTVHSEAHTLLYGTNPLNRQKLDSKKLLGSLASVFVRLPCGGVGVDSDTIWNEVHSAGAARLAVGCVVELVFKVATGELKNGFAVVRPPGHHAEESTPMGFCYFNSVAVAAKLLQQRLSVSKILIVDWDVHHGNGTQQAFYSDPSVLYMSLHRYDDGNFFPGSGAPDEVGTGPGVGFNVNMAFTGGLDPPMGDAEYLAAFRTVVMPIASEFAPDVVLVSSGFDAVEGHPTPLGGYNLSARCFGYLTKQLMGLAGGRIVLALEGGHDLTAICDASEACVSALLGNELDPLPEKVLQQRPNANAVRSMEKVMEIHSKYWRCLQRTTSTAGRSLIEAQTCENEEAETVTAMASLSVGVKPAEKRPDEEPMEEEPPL
Method: (§1) The compounds of Examples 1-12 and 14-16 were evaluated for their ability to act as inhibitors of human HDAC. The compound of Example 13 was not tested. Recombinant human HDAC1, HDAC2, HDAC3/NcoR2, HDAC5, HDAC6, HDAC8, HDAC9, HDAC10 and HDAC11 were purchased from BPS Biosciences. Recombinant human HDAC4 and HDAC7 were purchased from Millipore. The substrate Boc-Lys(Ac)-AMC and Boc-Lys(Tfa)-AMC were purchased from Bachem. The substrate Ac-RHK(Ac)K(Ac)-AMC was purchased from Enzo Life Sciences. Due to the different specific activities of each isoform, different amount of enzyme was used in each isoform screening assay. In these assays, trichostatin A (TSA), suberanilohydroxamic acid and diphenylacetohydroxamic acid (DPAHA) were employed as positive controls. All determinations were carried out in triplicate, and reported values were the average of these determinations, which in no case varied by more than 5%.
(§2) For evaluating the inhibition of class IIa HDACs (HDAC4, HDAC5, HDAC7 and HDAC9) and class IV HDAC (HDAC11), 10 μl of test samples were first incubated with 1 ng HDAC4 (specific activity=15400 pmol/min/μg), 5 ng HDAC5 (specific activity=2521 pmol/min/μg), 1 ng HDAC7 (specific activity=26340 pmol/min/μg), 5 ng HDAC9 (specific activity=3000 pmol/min/μg), and 500 ng HDAC11 (specific activity=1.8 pmol/min/μg) respectively. Then 25 μl of the Boc-Lys(Tfa)-AMC substrate (50 μM final concentration) was added and incubated at 37° C. for 30-60 min, and followed by adding 50 μl of developer. The last step was to read the samples in a SpectraMax M5 plate reader (Molecular Devices) at an excitation wavelength of 360 nm and an emission wavelength of 460 nm.

Recombinant human HDAC6 = target: T2, Recombinant human HDAC6 (Homo sapiens, UniProt Q9UBN7); assay: HDAC inhibitory assay, HDAC6 (Boc-Lys(Ac)-AMC substrate)
T2 construct: purchased BPS Biosciences
T2 sequence (Q9UBN7 1-1215): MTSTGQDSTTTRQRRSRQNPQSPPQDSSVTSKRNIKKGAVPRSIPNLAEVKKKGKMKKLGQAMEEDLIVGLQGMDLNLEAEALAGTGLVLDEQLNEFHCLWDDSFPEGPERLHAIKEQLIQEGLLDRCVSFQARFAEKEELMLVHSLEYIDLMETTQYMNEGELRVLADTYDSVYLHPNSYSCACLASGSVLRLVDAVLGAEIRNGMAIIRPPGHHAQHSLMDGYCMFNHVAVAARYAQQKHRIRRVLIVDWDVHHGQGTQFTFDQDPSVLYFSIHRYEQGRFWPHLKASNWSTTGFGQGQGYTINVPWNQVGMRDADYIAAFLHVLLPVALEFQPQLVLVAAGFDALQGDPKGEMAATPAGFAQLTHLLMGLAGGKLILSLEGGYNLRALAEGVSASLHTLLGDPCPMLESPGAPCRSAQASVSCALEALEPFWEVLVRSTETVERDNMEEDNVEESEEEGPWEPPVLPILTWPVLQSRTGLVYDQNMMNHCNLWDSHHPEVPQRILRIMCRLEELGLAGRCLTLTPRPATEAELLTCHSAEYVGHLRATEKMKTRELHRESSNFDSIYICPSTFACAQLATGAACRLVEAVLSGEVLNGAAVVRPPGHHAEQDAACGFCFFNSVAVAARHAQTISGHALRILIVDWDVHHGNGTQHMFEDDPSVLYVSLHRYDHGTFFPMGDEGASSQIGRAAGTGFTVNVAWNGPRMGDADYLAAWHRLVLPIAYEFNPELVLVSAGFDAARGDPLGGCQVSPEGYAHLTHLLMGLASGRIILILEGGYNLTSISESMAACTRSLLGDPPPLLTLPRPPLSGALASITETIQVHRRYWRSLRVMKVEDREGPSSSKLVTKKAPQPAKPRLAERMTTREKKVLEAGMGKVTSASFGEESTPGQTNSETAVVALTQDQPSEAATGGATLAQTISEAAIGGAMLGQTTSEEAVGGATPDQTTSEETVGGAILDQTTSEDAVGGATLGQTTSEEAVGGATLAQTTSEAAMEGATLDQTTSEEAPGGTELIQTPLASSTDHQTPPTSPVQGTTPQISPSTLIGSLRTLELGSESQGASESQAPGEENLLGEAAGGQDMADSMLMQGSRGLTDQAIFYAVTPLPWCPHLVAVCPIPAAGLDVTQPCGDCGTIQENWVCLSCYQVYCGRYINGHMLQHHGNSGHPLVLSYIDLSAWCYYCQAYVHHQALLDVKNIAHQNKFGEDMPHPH
Method: as §1
(§3) Then 25 μl of the Boc-Lys(Ac)-AMC substrate (50 μM final concentration) was added and incubated at 37° C. for 30-60 min, and followed by adding 50 μl of developer (1 mg/ml trypsin and 1 μM TSA). The last step was reading the samples in a SpectraMax M5 plate reader (Molecular Devices) at an excitation wavelength of 360 nm and an emission wavelength of 460 nm.

Recombinant human HDAC5 = target: T3, Recombinant human HDAC5 (Homo sapiens, UniProt Q9UQL6); assay: HDAC inhibitory assay, HDAC5 (Boc-Lys(Tfa)-AMC substrate)
T3 construct: purchased BPS Biosciences
T3 sequence (Q9UQL6 whole entry): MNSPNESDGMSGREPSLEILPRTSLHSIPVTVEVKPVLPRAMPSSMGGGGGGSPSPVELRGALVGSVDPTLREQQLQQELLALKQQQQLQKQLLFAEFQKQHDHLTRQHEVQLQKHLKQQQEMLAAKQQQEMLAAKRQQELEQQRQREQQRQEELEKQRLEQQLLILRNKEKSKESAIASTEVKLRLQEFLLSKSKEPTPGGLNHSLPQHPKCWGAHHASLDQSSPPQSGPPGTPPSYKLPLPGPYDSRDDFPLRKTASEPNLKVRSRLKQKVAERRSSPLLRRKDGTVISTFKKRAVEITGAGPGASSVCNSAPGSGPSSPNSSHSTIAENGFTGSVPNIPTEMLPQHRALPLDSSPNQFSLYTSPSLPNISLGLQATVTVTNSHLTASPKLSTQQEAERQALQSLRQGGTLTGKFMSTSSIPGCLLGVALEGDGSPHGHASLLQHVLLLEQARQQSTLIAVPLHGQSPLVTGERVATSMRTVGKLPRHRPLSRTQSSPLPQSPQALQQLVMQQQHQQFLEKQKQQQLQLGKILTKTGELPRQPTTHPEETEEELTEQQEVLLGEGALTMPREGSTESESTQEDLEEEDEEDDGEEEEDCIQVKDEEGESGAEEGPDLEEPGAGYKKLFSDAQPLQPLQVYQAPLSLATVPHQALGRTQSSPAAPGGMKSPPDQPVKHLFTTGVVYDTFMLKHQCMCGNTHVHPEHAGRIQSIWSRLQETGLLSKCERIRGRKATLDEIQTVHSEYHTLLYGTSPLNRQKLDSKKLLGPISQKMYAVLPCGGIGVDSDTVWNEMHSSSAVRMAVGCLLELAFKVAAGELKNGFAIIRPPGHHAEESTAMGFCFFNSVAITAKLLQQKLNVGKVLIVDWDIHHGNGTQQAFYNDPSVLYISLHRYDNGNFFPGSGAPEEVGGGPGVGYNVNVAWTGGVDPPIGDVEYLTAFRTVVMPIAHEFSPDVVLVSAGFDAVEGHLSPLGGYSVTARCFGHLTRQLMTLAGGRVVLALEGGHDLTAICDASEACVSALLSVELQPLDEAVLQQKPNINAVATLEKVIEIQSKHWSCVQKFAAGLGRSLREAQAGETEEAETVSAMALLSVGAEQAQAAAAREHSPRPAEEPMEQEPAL
Method: as §1, §2

Recombinant human HDAC10 = target: T4, Recombinant human HDAC10 (Homo sapiens, UniProt Q969S8); assay: HDAC inhibitory assay, HDAC10 (Boc-Lys(Ac)-AMC substrate)
T4 construct: purchased BPS Biosciences
T4 sequence (Q969S8 1-669): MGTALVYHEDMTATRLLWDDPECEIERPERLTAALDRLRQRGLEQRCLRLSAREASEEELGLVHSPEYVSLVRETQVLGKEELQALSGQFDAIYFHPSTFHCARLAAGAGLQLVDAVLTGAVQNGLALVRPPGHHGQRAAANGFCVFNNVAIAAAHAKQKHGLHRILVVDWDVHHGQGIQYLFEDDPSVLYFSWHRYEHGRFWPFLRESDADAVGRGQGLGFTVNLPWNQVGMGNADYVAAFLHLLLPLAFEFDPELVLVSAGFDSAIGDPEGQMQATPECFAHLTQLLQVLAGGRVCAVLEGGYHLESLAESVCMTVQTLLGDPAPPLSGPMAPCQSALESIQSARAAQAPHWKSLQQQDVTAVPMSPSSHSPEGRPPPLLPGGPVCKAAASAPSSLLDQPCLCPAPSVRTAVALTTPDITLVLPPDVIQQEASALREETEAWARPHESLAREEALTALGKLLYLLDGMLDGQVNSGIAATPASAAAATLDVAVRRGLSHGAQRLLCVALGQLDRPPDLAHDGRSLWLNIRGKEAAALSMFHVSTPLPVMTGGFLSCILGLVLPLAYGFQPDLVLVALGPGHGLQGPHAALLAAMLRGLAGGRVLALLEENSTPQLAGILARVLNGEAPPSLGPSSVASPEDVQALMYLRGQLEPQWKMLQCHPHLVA
Method: as §1, §3

Row | HDAC 4 inhibitory activity (Recombinant human HDAC4) [%] | HDAC 6 inhibitory activity (Recombinant human HDAC6) [%] | HDAC 5 inhibitory activity (Recombinant human HDAC5) [%] | HDAC 10 inhibitory activity (Recombinant human HDAC10) [%] | SMILES
1 | 17.1 | 50.3 | 9.3 | 48.8 | O=C(Nc1ccccc1)c1coc(-c2ccccc2O)n1 [Example 1, 2-(2-Hydroxyphenyl)-N-phenyloxazole-4-carboxamide]
2 | 20.7 | 61.6 | 14.9 | 47.1 | O=C(NC(c1ccccc1)c1ccccc1)c1coc(-c2ccccc2O)n1 [Example 2, N-Benzhydryl-2-(2-hydroxyphenyl)oxazole-4-carboxamide]
3 | 8.5 | 49.1 | 0 | 35.7 | O=C(NCC(c1ccccc1)c1ccccc1)c1coc(-c2ccccc2O)n1 [Example 3, N-(2,2-Diphenylethyl)-2-(2-hydroxyphenyl)oxazole-4-carboxamide]
4 | 25.8 | 48.1 | 11.3 | 69.8 | O=C(NCCC(c1ccccc1)c1ccccc1)c1coc(-c2ccccc2O)n1 [Example 4, N-(3,3-Diphenylpropyl)-2-(2-hydroxyphenyl)oxazole-4-carboxamide]
5 | 25.5 | 45.6 | 0 | 58.6 | O=C(Nc1ccc(-c2ccccc2)cc1)c1coc(-c2ccccc2O)n1 [Example 5, N-([1,1′-Biphenyl]-4-yl)-2-(2-hydroxyphenyl)oxazole-4-carboxamide]
6 | 24.4 | 47.8 | 9.2 | 48.7 | O=C(NCc1ccc(-c2ccccc2)cc1)c1coc(-c2ccccc2O)n1 [Example 6, N-([1,1′-Biphenyl]-4-ylmethyl)-2-(2-hydroxyphenyl)oxazole-4-carboxamide]
7 | 21.3 | 40.4 | 3.2 | 44.5 | O=C(NCc1cccc2ccccc12)c1coc(-c2ccccc2O)n1 [Example 7, 2-(2-Hydroxyphenyl)-N-(naphthalen-1-ylmethyl)oxazole-4-carboxamide]
8 | 7.5 | 30.8 | 0 | 44.8 | O=C(NCCc1c[nH]c2ccccc12)c1coc(-c2ccccc2O)n1 [Example 8, N-(2-(1H-Indol-3-yl)ethyl)-2-(2-hydroxyphenyl)oxazole-4-carboxamide]
9 | 17.5 | 46.0 | 10.3 | 32.1 | O=C(NCCCCN1C(=O)c2ccccc2C1=O)c1coc(-c2ccccc2O)n1 [Example 9, N-(4-(1,3-Dioxoisoindolin-2-yl)butyl)-2-(2-hydroxyphenyl)oxazole-4-carboxamide]
10 | 4.8 | 26.7 | 1.4 | 56.5 | O=C(NCCCCNC(=O)C(c1ccccc1)c1ccccc1)c1coc(-c2ccccc2O)n1 [Example 10, N-(4-(2,2-Diphenylacetamido)butyl)-2-(2-hydroxyphenyl)oxazole-4-carboxamide]
11 | 55.8 | 50.2 | 43.5 | 91.2 | O=C(NCCCCNC(=S)NCCC(c1ccccc1)c1ccccc1)c1coc(-c2ccccc2O)n1 [Example 11, N-(4-(3-(3,3-Diphenylpropyl)thioureido)butyl)-2-(2-hydroxyphenyl)oxazole-4-carboxamide]
12 | 6.5 | 28.9 | 6.9 | 26.2 | O=C(NCCCCNCCC(c1ccccc1)c1ccccc1)c1coc(-c2ccccc2O)n1 [Example 12, N-(4-((3,3-Diphenylpropyl)amino)butyl)-2-(2-hydroxyphenyl)oxazole-4-carboxamide hydrochloride]
13 | 24.2 | 60.3 | 12.6 | 47.2 | O=C(O)c1ccc(CNC(=O)c2coc(-c3ccccc3O)n2)cc1 [Example 14, 4-((2-(2-Hydroxyphenyl)oxazole-4-carboxamido)methyl)benzoic acid]
14 | 18.3 | 30.8 | 0 | 56.3 | O=C(Nc1ccccc1)c1ccc(CNC(=O)c2coc(-c3ccccc3O)n2)cc1 [Example 15, 2-(2-Hydroxyphenyl)-N-(4-(phenylcarbamoyl)benzyl)oxazole-4-carboxamide]
15 | 28.1 | 59.9 | 12.5 | 54.7 | O=C(CNC(=O)c1coc(-c2ccccc2O)n1)Nc1ccccc1 [Example 16, 2-(2-Hydroxyphenyl)-N-(2-oxo-2-(phenylamino)ethyl)oxazole-4-carboxamide]
